Legend:
tumor cells (HeLa) = conditions: FIG. 7
Excerpt: (§1) A non-spectrophotometric characterization technique, i.e., scanning electron microscopy (SEM) was used with the procedure set forth in Example VIII.

[1] = test system: non-tumor cells (MCF-10A); conditions: FIGS. 10A-10B
Excerpt: as §1

[2] = test system: gynecological yeast infection; conditions: 10 ppm silver tetroxide and 40 ppm sodium persulfate; cited from earlier work
normal cells = test system: normal cells
Experimental: (§2) This example is directed to a reagent kit to determine the presence of cancer cells in cervical specimens (i.e., Pap (Papanicolaou test) smears).
(§3) TST solution (soluble TST) was prepared by adding 5 mg of TST to 1 ml of dd H2O. Inadvertent “grounding” of the TST was avoided. The solution was mixed gently and thoroughly by pipetting up and down. Formation of air bubbles and excessive agitation were avoided. The solution was centrifuged for 15 seconds at 1,000 rpm to settle excess TST. Soluble TST was added to a sample slide (picking up and depositing undissolved TST was avoided). The slide was incubated at room temperature for 10 minutes, followed by rinsing by either dipping the slide five times in a beaker of distilled water, or using the dual pipette method to remove excess TST. Dual pipette method: Using two pipettes, water was slowly added to the slide at one corner while the solution was simultaneously drawn up into the other pipette from a distal corner of the sample. Without intending to be bound by theory, the idea was to create somewhat of a flow across the sample, to gently wash it. The sample was quickly and gently blotted once or twice with a cloth wipe.
The enhancement solution was then prepared. One drop each of the 2-part enhancer was added to a microfuge tube. […]

HeLa cells = experiment: Binding/staining of HeLa cervical carcinoma cells; type: cell-based, human
Experimental: as §2
Next, HeLa cells were mixed with epithelial (cheek) cells to create a simulated Pap smear.
as §3
The enhancement solution was then prepared. One drop each of the 2-part enhancer was added to a microfuge tube. The mixture was vortexed for 40 seconds, and then immediately added it to the sample (an optional very brief centrifuge step at low speed in order to settle the liquid at the bottom of the tube was performed prior to addition to the sample). The sample was incubated at room temperature for 20-30 minutes. Optionally, the progress of the reaction under was observed using a light microscope. The slide was rinsed by either dipping the slide 5 times into a beaker of distilled water, or by the dual pipette method described above. The sample was quickly and gently blotted once or twice with a cloth wipe, and the sample was allowed to dry. The results were observed either under a light microscope or with the naked eye.

CNOX [3] = conditions: soybean seed plasma protein; elevated concentrations far above 1 PPM
Experimental: (§4) NADH oxidase (NOX) activity was determined (as the disappearance of it measured spectrophotometrically at 340 nm) in a reaction mixture (25 mM Tris-MES buffer at pH 7.2, KCN 1 mM) to inhibit low levels of mitochondrial oxidase activity, and 150 micromoles […] at 37° C. with stirring. Activity was measured with pairs of Hitachi U3210 Spectrophotometers. Assays were initiated by the addition of NOX and tetrasilver tetroxide (Ag4O4) for one minute and were repeated on the same sample every 1.5 minutes over a 45-minute period. A mM absorption coefficient of 6.2 was used to determine specific activity.
(§5) Protein disulfide-thiol interchange activity associated with tNOX was measured using the dipyridyldithio substrate dithiodipyridine (DTDP). The assay was performed in 50 mM Tris-MES buffer (pH 7.0) and was initiated by the addition of 0.5 micromoles DTDP in 5 microliters DMSO as a control. The reaction was monitored by tracking an increase in absorption at 340 nm using DTDP, specific activity being calculated using a mM absorption coefficient of 6.2. The spectrophotometric assays were performed simultaneously with the two spectrophotometers and DMSO controls.
(§6) The procedure was repeated with plasma protein derived from soybean seeds containing CNOX growth regulator.

CNOX [4] = biological target: CNOX (Homo sapiens, UniProt Q8TC92); conditions: MCF-10A human mammary epithelia; elevated concentrations far above 1 PPM
Experimental: as §4, §5, §6

toenail fungus = conditions: single case, 25% suspension of the composition, topical; cited from earlier work
athlete's foot = conditions: single case, solution of 100 ppm of the composition, topical; cited from earlier work
[5] = single intravenous injection at about 40 ppm of human blood; no reported loss of liver function; cited from earlier work
tNOX [6] = biological target: tNOX (Homo sapiens, UniProt Q16206); conditions: BT-20 mammary cancer cell line
Experimental: as §4, §5

tNOX [7] = conditions: HeLa cells; concentration of one part per million (PPM)
Experimental: as §4, §5

[8] = test system: Herpes virus infected cells; conditions: Pap smear samples, FIG. 4
Experimental: as §3
The enhancement solution was then prepared. One drop each of the 2-part enhancer was added to a microfuge tube. The mixture was vortexed for 40 seconds, and then immediately added it to the sample (an optional very brief centrifuge step at low speed in order to settle the liquid at the bottom of the tube was performed prior to addition to the sample). […]

wild type mouse liver = conditions: after computer photography enhancement, 40x
Experimental: (§7) Frozen liver slices were obtained, and the two step process described below for non-aqueous testing was performed. The results were viewed with a microscope and computer enhanced. Frozen liver slices from a wild type mouse (non-cancerous) were compared with frozen liver slices from a transgenic mouse expressing tNOX on its liver cells.
(§8) TST solution was prepared by adding 5 mg of TST to 1 ml of dd H2O. Inadvertent “grounding” of the TST was avoided. The solution was mixed gently and thoroughly by pipetting up and down. Air bubbles and excessive agitation were avoided. The solution was centrifuged for 15 seconds at 1,000 rpm to settle excess TST.
(§9) Soluble TST was added to a sample section, while avoiding undissolved TST. The sample was incubated at room temperature for 10 minutes. Excess TST was removed by dipping the section several times in a beaker of distilled water. The sample was quickly and gently blotted once or twice with a cloth wipe.
(§10) The enhancement solution was prepared by placing one drop each of the two-part enhancer into a microfuge tube. The mixture was vortexed for 40 seconds, and immediately added to the sample. The solution was optionally centrifuged briefly at low speed in order to settle the liquid at the bottom of the tube prior to addition to the sample. The sample was incubated at room temperature for 20-30 minutes.

[9] = test system: liver cells expressing tNOX; conditions: after computer photography enhancement, 40x
Experimental: as §7, §8, §9, §10

tNOX (Homo sapiens, UniProt Q16206), sequence (Q16206 whole entry): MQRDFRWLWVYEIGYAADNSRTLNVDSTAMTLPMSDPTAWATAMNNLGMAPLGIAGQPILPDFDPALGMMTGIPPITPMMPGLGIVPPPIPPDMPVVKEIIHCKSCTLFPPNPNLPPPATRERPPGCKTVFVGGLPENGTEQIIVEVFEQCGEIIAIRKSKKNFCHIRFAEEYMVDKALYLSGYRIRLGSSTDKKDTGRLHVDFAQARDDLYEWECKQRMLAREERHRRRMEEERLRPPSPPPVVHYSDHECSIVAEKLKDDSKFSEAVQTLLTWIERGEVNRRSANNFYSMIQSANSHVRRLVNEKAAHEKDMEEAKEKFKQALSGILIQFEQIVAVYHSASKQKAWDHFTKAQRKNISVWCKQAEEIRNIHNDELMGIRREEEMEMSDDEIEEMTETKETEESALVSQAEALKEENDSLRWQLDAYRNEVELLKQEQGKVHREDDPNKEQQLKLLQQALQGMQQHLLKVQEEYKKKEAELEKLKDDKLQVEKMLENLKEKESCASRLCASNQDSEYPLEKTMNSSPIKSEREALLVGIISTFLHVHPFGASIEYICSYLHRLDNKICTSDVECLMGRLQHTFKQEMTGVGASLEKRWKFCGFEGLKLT
CNOX (Homo sapiens, UniProt Q8TC92), sequence (Q8TC92 whole entry): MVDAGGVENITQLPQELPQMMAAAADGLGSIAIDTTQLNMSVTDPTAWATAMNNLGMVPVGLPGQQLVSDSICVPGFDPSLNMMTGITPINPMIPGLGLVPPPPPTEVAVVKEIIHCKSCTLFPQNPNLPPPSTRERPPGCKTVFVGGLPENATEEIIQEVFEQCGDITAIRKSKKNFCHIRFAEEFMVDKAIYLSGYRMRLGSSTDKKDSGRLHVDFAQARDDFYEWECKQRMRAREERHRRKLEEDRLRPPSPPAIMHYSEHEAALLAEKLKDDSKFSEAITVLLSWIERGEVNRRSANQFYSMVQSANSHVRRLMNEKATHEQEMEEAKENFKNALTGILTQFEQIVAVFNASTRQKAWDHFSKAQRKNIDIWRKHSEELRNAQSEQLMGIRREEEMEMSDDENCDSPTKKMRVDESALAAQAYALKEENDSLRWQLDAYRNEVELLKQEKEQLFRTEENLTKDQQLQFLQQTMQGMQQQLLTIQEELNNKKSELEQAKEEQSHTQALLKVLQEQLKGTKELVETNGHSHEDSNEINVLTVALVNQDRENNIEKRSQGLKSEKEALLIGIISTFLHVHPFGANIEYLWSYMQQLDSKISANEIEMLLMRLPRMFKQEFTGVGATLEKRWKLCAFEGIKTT

Structure (SMILES) | binding by SEM (tumor cells (HeLa)) | binding by SEM [1] | outcome of infection [2] | binding to normal cells (normal cells) | nuclear staining (normal cells; Pap smear samples, FIG. 4) | binding to HeLa cultured cervical cell lines (HeLa cells) | nuclear staining (HeLa cells; Pap smear samples, FIG. 4) | distinguishing HeLa cells from epithelial (cheek) cells (HeLa cells; simulated Pap smear, HeLa mixed with cheek cells) | effect on CNOX (CNOX [3]) | effect on CNOX (CNOX [4]) | outcome of infection (toenail fungus) | outcome of infection (athlete's foot) | liver adverse effect [5] | tNOX activity inhibition (tNOX [6]) | tNOX activity inhibition (tNOX [7]) | staining of infected cells [8] | staining of liver slices (wild type mouse liver) | staining of liver slices [9] | staining of HeLa cells (HeLa cells; Fe3O4, FIGS. 9A-9C)
[Ag+].[Ag+].[Ag+].[Ag+].[O-2].[O-2].[O-2].[O-2] [tetrasilver tetroxide] | actual binding | non-binding | curing | without binding | no nuclear staining | bound covalently | black staining of nuclei | selective binding with and darkening of the cytoplasmic membrane of the HeLa cells | not affected at all | not affected at all | cure | cure | hepatomegaly | the same as in Example VIfI | inhibited completely | brown staining | did not | black nuclei and black borders | 
[O]=[Fe].[O]=[Fe][O][Fe]=[O] [Fe3O4, triiron tetroxide] |  |  |  |  |  |  |  |  |  |  |  |  |  |  |  |  |  |  | selectively stained
